Values joined by “and” are separate entries in the source; they are usually repeats but may differ in a detail not shown here. Identical values can stand only once.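 Five compound concentrations were applied to cells in 96-well plates for 48 hours; endpoints were derived by simple linear interpolation of the resulting dose-response curve. GI50: concentration for 50% inhibition of growth. TGI marks complete inhibition of growth.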
Assays:
Test in all cases: growth of human tumour cells (NCI), 48 h
M14 melanoma = system: M14 melanoma
UACC-62 melanoma = system: UACC-62 melanoma
BT-549 breast = system: BT-549 breast
PC-3 prostate = system: PC-3 prostate
EKVX NSCLC = system: EKVX NSCLC
SF-539 CNS = system: SF-539 CNS
NCI-H226 lung = system: NCI-H226 lung
OVCAR-3 ovarian = system: OVCAR-3 ovarian
MDA-MB-435 = system: MDA-MB-435
DU-145 prostate = system: DU-145 prostate

Row | SMILES | GI50 (M14 melanoma) | TGI (M14 melanoma) | GI50 (UACC-62 melanoma) | TGI (UACC-62 melanoma) | GI50 (BT-549 breast) | TGI (BT-549 breast) | GI50 (PC-3 prostate) | TGI (PC-3 prostate) [µM] | GI50 (EKVX NSCLC) | TGI (EKVX NSCLC) [µM] | GI50 (SF-539 CNS) | TGI (SF-539 CNS) | GI50 (NCI-H226 lung) | TGI (NCI-H226 lung) | GI50 (OVCAR-3 ovarian) | TGI (OVCAR-3 ovarian) | GI50 (MDA-MB-435) | TGI (MDA-MB-435) | GI50 (DU-145 prostate) | TGI (DU-145 prostate) [µM]
1 | CC(C)COCC(CN(Cc1ccccc1)c1ccccc1)N1CCCC1 (stereo not given) | 2.3 µM | 5.76 µM | 2.87 µM | 12.5 µM | 5.75 µM | 19 µM | 3.04 µM | 13.9 | 2.85 µM | 15.1 | 6.46 µM | 19.4 µM | 2.28 µM | 9.48 µM | 3.15 µM | 12.1 µM | 3.46 µM | 13.8 µM | 3.76 µM | 13.6
2 | COc1ccc(C(=O)/C=C/c2ccc3c(c2)OCO3)c(OCc2ccccc2)c1 |  | > 100 µM |  | > 100 µM |  | > 100 µM |  | > 100 |  | > 100 |  | > 100 µM |  | > 100 µM |  | > 100 µM |  | > 100 µM |  | > 100
3 | CCOC(=O)/C(=C\c1ccc(C#N)cc1)C(C)=O |  | 95.1 µM |  | 17.5 µM |  | 37 µM |  | 39.1 |  | > 100 |  | > 100 µM |  | 89.3 µM |  | > 100 µM |  | 98.3 µM |  | 37.7
4 | O=S(=O)(c1cccc2c(Cl)cccc12)N1CCCNCC1 | 12.4 µM | 24.9 µM | 13.6 µM | 26.5 µM | 19.8 µM | 36.4 µM | 13.8 µM | 26.8 | 19.9 µM | 35.9 | 19.4 µM | 37.7 µM | 11.8 µM | 25.3 µM | 14.6 µM | 29.4 µM | 14.9 µM | 28.6 µM | 17.1 µM | 32.1
5 | O=C(O)c1cc(-c2ccncc2)nc2ccccc12 |  | > 100 µM |  | > 100 µM |  | > 100 µM |  | > 100 |  | > 100 |  | > 100 µM |  | > 100 µM |  | > 100 µM |  | > 100 µM |  | > 100
6 | Nc1c([N+](=O)[O-])cc2c3c(cccc13)CC2 |  | > 100 µM |  | > 100 µM |  | > 100 µM |  | > 100 |  | > 100 |  | > 100 µM |  | > 100 µM |  | > 100 µM |  | > 100 µM |  | > 100
7 | O=c1oc2cc(N=Cc3ccc4c(c3)OCO4)ccc2c2ccccc12 |  | > 100 µM |  | > 100 µM |  | > 100 µM |  | > 100 |  | 50.6 |  | > 100 µM |  | > 100 µM |  | > 100 µM |  | > 100 µM |  | > 100
8 | O=C1C=CC[C@H](/C=C/c2ccccc2)O1 | 5.85 µM | 23.3 µM | 4.84 µM | 19 µM | 2.28 µM | 19.3 µM | 3.37 µM | 27.5 | 6.48 µM | > 50.1 | 0.813 µM | 8.24 µM | 0.787 µM | 4.31 µM | 1.94 µM | 7.31 µM | 1.81 µM | 14.8 µM | 2.82 µM | 9.07
9 | COc1cc(NC(=O)CSc2nc3ccc(C)cc3c(=O)n2Cc2ccccc2)cc(OC)c1OC | 8.38 µM | > 100 µM | 2.93 µM | > 100 µM | 2.98 µM | 20 µM | 6.88 µM | > 100 | 8.59 µM | > 100 | 3.46 µM | 13.8 µM | 3.2 µM | 22.3 µM | 9.36 µM | > 100 µM | 9.55 µM | > 100 µM | 84.7 µM | > 100
10 | COc1cc2c(cc1OCCCCCOc1ccc(-n3c(C)nc4ccccc4c3=O)cc1)N=C[C@@H]1CCCN1C2=O | 0.18 µM | 0.375 µM | 0.171 µM | 0.336 µM | 0.137 µM | 0.34 µM | 0.34 µM | 2.89 | 0.778 µM | 4.77 | 0.285 µM | 0.728 µM | 0.214 µM | 0.466 µM | 0.346 µM | 15.5 µM | 0.184 µM | 0.39 µM | 0.41 µM | 3.74
11 | COc1ccccc1N1CCN(CCc2c[nH]c3cc4c(cc23)OCO4)CC1 | 11.3 µM | 40.7 µM | 32.2 µM | > 100 µM | 23.3 µM | > 100 µM | 20 µM | > 100 | 16.8 µM | 64.6 | 20.2 µM | > 100 µM | 29.9 µM | > 100 µM | 30.2 µM | > 100 µM | 14 µM | 52.3 µM | 28.9 µM | > 100
12 | CC1(O)CC(c2nc(-c3ccc4ccc(-c5ccccc5)nc4c3)c3c(N)nccn23)C1 (stereo not given) | 11.5 µM and > 10 µM | 31.1 µM and > 10 µM | 10.8 µM and > 10 µM | 32.2 µM and > 10 µM | 6.92 µM and 5.87 µM | 24.3 µM and > 10 µM | 12.7 µM and > 10 µM | > 100 | 11.7 µM and > 10 µM | > 100 | 11.9 µM and > 10 µM | 28.8 µM and > 10 µM | 3.72 µM and 3.12 µM | 49.7 µM and > 10 µM | 15 µM and > 10 µM | 34.7 µM and > 10 µM | 4.53 µM and 3.69 µM | 27.3 µM and > 10 µM | 7.4 µM and 8.12 µM | > 86.8
13 | Cc1cc(NCc2cc(Nc3ccnc4cc(Cl)ccc34)ccc2F)nc(N2CCN(C)CC2)n1 | 1.56 µM | 3.13 µM | 1.91 µM | 3.81 µM | 1.77 µM | 3.65 µM | 1.92 µM | 7.97 | 2.91 µM | 12.6 | 1.79 µM | 3.37 µM | 2.22 µM | 5.5 µM | 1.76 µM | 3.83 µM | 1.52 µM | 2.96 µM | 2.63 µM | 11.4
14 | CN(C)CC1C(=O)O[C@H]2[C@H]1CC/C(COC(=O)c1cc3ccccc3[nH]1)=C\CC[C@@]1(C)O[C@@H]21 (stereo not given in full) | 1.76 µM | 4.29 µM | 1.72 µM | 3.89 µM | 1.66 µM | 4.48 µM | 2.14 µM | 5.86 | 3.16 µM | 12.5 | 2.2 µM | 5.86 µM | 3.23 µM | 9.35 µM | 0.672 µM | 1.76 µM | 1.49 µM | 3.2 µM | 2.01 µM | 6.17
15 | CNCCNc1c2c(c(NCCNC)c3[nH]ccc13)C(=O)c1ccccc1C2=O | 0.27 µM | 1.35 µM | 0.231 µM | 1.05 µM | 4 µM | 8.21 µM | 0.0593 µM | 0.309 | 1.33 µM | 4.13 | 0.458 µM | 1.07 µM | 0.215 µM | 1.84 µM | 0.174 µM | 0.887 µM | 0.255 µM | 1.47 µM | 0.526 µM | 1.31

Source: PubChem BioAssay (NCI)
